In patent publication US10294202B2, “Pyrrolidinones as herbicides” (FMC Corporation, priority 2013, dated 2019):
Like-named read-outs stand apart in the source and are kept apart here.

How the values were obtained:
[1] = test system: wheat; assay: Test A pre-/postemergence herbicide test; format: in vivo, Triticum aestivum; settings: Postemergence; for Wheat plant response rating (0 to 100 scale, 0 is no effect, 100 is complete control): 500 g ai/ha
How it was run: (§1)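 Scoring was visual, relative to untreated controls, on a 0–100 scale after about 10 greenhouse days. Preemergence treatment used a directed soil spray over seeded loam/sand; postemergence treatment targeted one- to two-leaf plants of 2–10 cm.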

[2] = test system: pigweed; assay: Test A pre-/postemergence herbicide test; format: in vivo, Amaranthus retroflexus
How it was run: as §1

[3] = test system: corn; assay: Test C pre-/postemergence herbicide test; format: in vivo, Zea mays
How it was run: (§2)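 Response scores range from 0, meaning no effect, to 100, meaning complete control, assigned visually by comparison with controls roughly two weeks (13 to 15 days) after spraying. Applications were made preemergence to seeded loam–sand soil and postemergence to 1- to 4-leaf plants.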

[4] = test system: ryegrass, Italian; assay: Test C pre-/postemergence herbicide test; format: in vivo, Lolium multiflorum
How it was run: as §2

[5] = test system: velvetleaf; assay: Test C pre-/postemergence herbicide test; format: in vivo, Abutilon theophrasti
How it was run: as §2

[6] = test system: morningglory; assay: Test C pre-/postemergence herbicide test; format: in vivo, Ipomoea coccinea
How it was run: as §2

[7] = test system: nutsedge, yellow; assay: Test C pre-/postemergence herbicide test; format: in vivo, Cyperus esculentus
How it was run: as §2

[8] = test system: galium; assay: Test C pre-/postemergence herbicide test; format: in vivo, Galium aparine
How it was run: as §2

[9] = test system: blackgrass; assay: Test C pre-/postemergence herbicide test; format: in vivo, Alopecurus myosuroides; settings: for Blackgrass plant response rating: scale 0 to 100, 0 is no effect and 100 is complete control
How it was run: as §2

[10] = test system: barnyardgrass; assay: Test C pre-/postemergence herbicide test; format: in vivo, Echinochloa crus-galli; settings: for Barnyardgrass plant response rating: scale 0 to 100, 0 is no effect and 100 is complete control
How it was run: as §2

[11] = Postemergence, 31 g ai/ha, scale 0 to 100 (0 no effect, 100 complete control)
[12] = Postemergence, 62 g ai/ha, scale 0 (no effect) to 100 (complete control)
[13] = Postemergence, 125 g ai/ha, scale 0 to 100 (0 no effect, 100 complete control)
[14] = Postemergence, 250 g ai/ha, scale 0 to 100 (0 no effect, 100 complete control)
[15] = Preemergence, 31 g ai/ha, scale 0 to 100, 0 is no effect and 100 is complete control
[16] = Preemergence, 62 g ai/ha, scale 0 to 100 (0 no effect, 100 complete control)
[17] = Preemergence, 125 g ai/ha, scale 0 to 100 (0 no effect, 100 complete control)
[18] = Preemergence, 62 g ai/ha, scale 0 to 100

Compound: O=C1NC[C@H](c2cccc(C(F)(F)F)c2)[C@H]1C(=O)Nc1ccccc1F [Compound 204, (3R,4S)—N-(2-fluorophenyl)-2-oxo-4-[3-(trifluoromethyl)phenyl]-3-pyrrolidinecarboxamide]
- Wheat plant response rating (0 to 100 scale, 0 is no effect, 100 is complete control) [1]: 80
- plant injury at 125 g/ha ([1]; Triticum aestivum, post-emergence, 240 h, 125 g ai/ha, 0 to 100 scale, 0 is no effect, 100 is complete control, read-out: Plant response rating, Wheat): 60%
- pest or weed control at 125 g/ha ([2]; Amaranthus retroflexus, post-emergence, 240 h, Postemergence, 125 g ai/ha, 0 to 100 scale, 0 is no effect, 100 is complete control, read-out: Plant response rating, Pigweed): 0%
- pest or weed control at 125 g/ha ([2]; Amaranthus retroflexus, pre-emergence, 240 h, 125 g ai/ha, visual rating, 0 to 100 scale, 0 no effect, 100 complete control, approximately 10 days, read-out: Plant response rating, Pigweed): 0%
- pest or weed control at 500 g/ha ([2]; Amaranthus retroflexus, pre-emergence, 240 h, preemergence, 500 g ai/ha, 0 to 100 scale, 0 is no effect and 100 is complete control, read-out: Plant response rating, Pigweed): 50%
- Pigweed plant response rating (0 to 100 scale, 0 is no effect, 100 is complete control) ([2]; Postemergence, 500 g ai/ha): 20
- Plant response rating, Corn [3, 11]: 0
- Plant response rating, Corn [3, 12]: 0
- Plant response rating, Corn [3, 13]: 0
- Plant response rating, Corn [3, 14]: 40
- Corn plant response rating [3, 15]: 45
- Corn plant response rating [3, 16]: 25
- Plant response rating, Corn [3, 17]: 55
- Plant response rating (scale of 0 to 100), Corn ([3]; Preemergence, 250 g ai/ha): 75
- Plant response rating, Ryegrass, Italian [4, 11]: 0
- Plant response rating, Ryegrass, Italian [4, 12]: 0
- Plant response rating, Ryegrass, Italian [4, 13]: 0
- Plant response rating, Ryegrass, Italian [4, 14]: 15
- Ryegrass, Italian plant response rating [4, 15]: 0
- Ryegrass, Italian plant response rating [4, 16]: 0
- Plant response rating, Ryegrass, Italian [4, 17]: 50
- Plant response rating (scale of 0 to 100), Ryegrass, Italian ([4]; Preemergence, 250 g ai/ha): 30
- Plant response rating, Velvetleaf [5, 11]: 0
- Plant response rating, Velvetleaf [5, 12]: 0
- Plant response rating, Velvetleaf [5, 13]: 0
- Plant response rating, Velvetleaf [5, 14]: 10
- Velvetleaf plant response rating [5, 15]: 0
- Velvetleaf plant response rating [5, 16]: 0
- Plant response rating, Velvetleaf [5, 17]: 0
- Plant response rating (scale of 0 to 100), Velvetleaf ([5]; Preemergence, 250 g ai/ha): 30
- Plant response rating, Morningglory [6, 11]: 5
- Plant response rating, Morningglory [6, 12]: 5
- Plant response rating, Morningglory [6, 13]: 15
- Plant response rating, Morningglory [6, 14]: 35
- Morningglory plant response rating [6, 15]: 0
- Morningglory plant response rating [6, 16]: 0
- Plant response rating, Morningglory [6, 17]: 20
- Plant response rating (scale of 0 to 100), Morningglory ([6]; Preemergence, 250 g ai/ha): 40
- Plant response rating, Nutsedge, Yellow [7, 11]: 0
- Plant response rating, Nutsedge, Yellow [7, 12]: 0
- Plant response rating, Nutsedge, Yellow [7, 13]: 0
- Plant response rating, Nutsedge, Yellow [7, 14]: 0
- Nutsedge, Yellow plant response rating [7, 15]: 0
- Nutsedge, Yellow plant response rating [7, 16]: 0
- Plant response rating, Nutsedge, Yellow [7, 17]: 0
- Plant response rating (scale of 0 to 100), Nutsedge, Yellow ([7]; Preemergence, 250 g ai/ha): 0
- Plant response rating, Galium [8, 11]: 10
- Plant response rating, Galium [8, 12]: 45
- Plant response rating, Galium [8, 13]: 60
- Plant response rating, Galium [8, 14]: 60
- Galium plant response rating [8, 16]: 90
- Plant response rating, Galium [8, 17]: 90
- Plant response rating (scale of 0 to 100), Galium ([8]; Preemergence, 250 g ai/ha): 90
- Plant response rating, Blackgrass [9, 11]: 0
- Plant response rating, Blackgrass [9, 12]: 0
- Plant response rating, Blackgrass [9, 13]: 0
- Plant response rating, Blackgrass [9, 14]: 50
- Blackgrass plant response rating ([9]; Preemergence, 31 g ai/ha): 90
- Plant response rating, Blackgrass [9, 18]: 90
- Plant response rating, Blackgrass [9, 17]: 90
- Plant response rating (scale of 0 to 100), Blackgrass ([9]; Preemergence, 250 g ai/ha): 90
- Plant response rating, Barnyardgrass [10, 11]: 5
- Plant response rating, Barnyardgrass [10, 12]: 55
- Plant response rating, Barnyardgrass [10, 13]: 80
- Plant response rating, Barnyardgrass [10, 14]: 90
- Barnyardgrass plant response rating ([10]; Preemergence, 31 g ai/ha): 80
- Plant response rating, Barnyardgrass [10, 18]: 90
- Plant response rating, Barnyardgrass [10, 17]: 95
- Plant response rating (scale of 0 to 100; 0 is no effect, 100 is complete control), Barnyardgrass ([10]; Preemergence, 250 g ai/ha): 95

Compound: O=C1NC[C@H](c2cccc(C(F)(F)F)c2)[C@H]1C(=O)Nc1cccc(F)c1F [Compound 206]
- Plant response rating, Wheat ([1]; 125 g ai/ha, 0 to 100 scale, 0 is no effect, 100 is complete control): 70
- Wheat plant response rating (0 to 100 scale, 0 is no effect, 100 is complete control) [1]: 80
- Plant response rating, Pigweed ([2]; 125 g ai/ha, visual rating, 0 to 100 scale, 0 no effect, 100 complete control, approximately 10 days, preemergence): 30
- Plant response rating, Pigweed ([2]; Postemergence, 125 g ai/ha, 0 to 100 scale, 0 is no effect, 100 is complete control): 50
- Pigweed plant response rating (0 to 100 scale, 0 is no effect, 100 is complete control) ([2]; Postemergence, 500 g ai/ha): 70
- Plant response rating, Pigweed ([2]; preemergence, 500 g ai/ha, 0 to 100 scale, 0 is no effect and 100 is complete control): 80
- Plant response rating, Corn [3, 11]: 0
- Plant response rating, Corn [3, 12]: 0
- Plant response rating, Corn [3, 13]: 30
- Plant response rating, Corn [3, 14]: 50
- Corn plant response rating [3, 15]: 30
- Corn plant response rating [3, 16]: 60
- Plant response rating, Corn [3, 17]: 65
- Plant response rating (scale of 0 to 100), Corn ([3]; Preemergence, 250 g ai/ha): 60
- Plant response rating, Ryegrass, Italian [4, 11]: 0
- Plant response rating, Ryegrass, Italian [4, 12]: 0
- Plant response rating, Ryegrass, Italian [4, 13]: 10
- Plant response rating, Ryegrass, Italian [4, 14]: 35
- Ryegrass, Italian plant response rating [4, 15]: 30
- Ryegrass, Italian plant response rating [4, 16]: 40
- Plant response rating, Ryegrass, Italian [4, 17]: 45
- Plant response rating (scale of 0 to 100), Ryegrass, Italian ([4]; Preemergence, 250 g ai/ha): 20
- Plant response rating, Velvetleaf [5, 11]: 0
- Plant response rating, Velvetleaf [5, 12]: 0
- Plant response rating, Velvetleaf [5, 13]: 15
- Plant response rating, Velvetleaf [5, 14]: 15
- Velvetleaf plant response rating [5, 15]: 0
- Velvetleaf plant response rating [5, 16]: 50
- Plant response rating, Velvetleaf [5, 17]: 40
- Plant response rating (scale of 0 to 100), Velvetleaf ([5]; Preemergence, 250 g ai/ha): 60
- Plant response rating, Morningglory [6, 11]: 20
- Plant response rating, Morningglory [6, 12]: 20
- Plant response rating, Morningglory [6, 13]: 35
- Plant response rating, Morningglory [6, 14]: 45
- Morningglory plant response rating [6, 15]: 0
- Morningglory plant response rating [6, 16]: 0
- Plant response rating, Morningglory [6, 17]: 0
- Plant response rating (scale of 0 to 100), Morningglory ([6]; Preemergence, 250 g ai/ha): 10
- Plant response rating, Nutsedge, Yellow [7, 11]: 0
- Plant response rating, Nutsedge, Yellow [7, 12]: 20
- Plant response rating, Nutsedge, Yellow [7, 13]: 0
- Plant response rating, Nutsedge, Yellow [7, 14]: 0
- Nutsedge, Yellow plant response rating [7, 15]: 0
- Nutsedge, Yellow plant response rating [7, 16]: 0
- Plant response rating, Nutsedge, Yellow [7, 17]: 0
- Plant response rating (scale of 0 to 100), Nutsedge, Yellow ([7]; Preemergence, 250 g ai/ha): 0
- Plant response rating, Galium [8, 11]: 60
- Plant response rating, Galium [8, 12]: 75
- Plant response rating, Galium [8, 13]: 75
- Plant response rating, Galium [8, 14]: 75
- Galium plant response rating [8, 15]: 20
- Galium plant response rating [8, 16]: 70
- Plant response rating, Galium [8, 17]: 70
- Plant response rating (scale of 0 to 100), Galium ([8]; Preemergence, 250 g ai/ha): 85
- Plant response rating, Blackgrass [9, 11]: 0
- Plant response rating, Blackgrass [9, 12]: 0
- Plant response rating, Blackgrass [9, 13]: 40
- Plant response rating, Blackgrass [9, 14]: 60
- Blackgrass plant response rating ([9]; Preemergence, 31 g ai/ha): 85
- Plant response rating, Blackgrass [9, 18]: 90
- Plant response rating, Blackgrass [9, 17]: 90
- Plant response rating (scale of 0 to 100), Blackgrass ([9]; Preemergence, 250 g ai/ha): 90
- Plant response rating, Barnyardgrass [10, 11]: 25
- Plant response rating, Barnyardgrass [10, 12]: 40
- Plant response rating, Barnyardgrass [10, 13]: 80
- Plant response rating, Barnyardgrass [10, 14]: 80
- Barnyardgrass plant response rating ([10]; Preemergence, 31 g ai/ha): 90
- Plant response rating, Barnyardgrass [10, 18]: 90
- Plant response rating, Barnyardgrass [10, 17]: 95
- Plant response rating (scale of 0 to 100; 0 is no effect, 100 is complete control), Barnyardgrass ([10]; Preemergence, 250 g ai/ha): 95
